Experimental findings from patent US8785439B2, “2,5,7-substituted oxazolopyrimidine derivatives” (Sanofi, priority 2010, dated 2014) are described below.

The target of the assay is T1, human Edg-1 receptor (Homo sapiens, UniProt P21453).
T1 construct: FLAG (N); expressed in transfected cells; membrane preparation
T1 sequence (P21453 whole entry): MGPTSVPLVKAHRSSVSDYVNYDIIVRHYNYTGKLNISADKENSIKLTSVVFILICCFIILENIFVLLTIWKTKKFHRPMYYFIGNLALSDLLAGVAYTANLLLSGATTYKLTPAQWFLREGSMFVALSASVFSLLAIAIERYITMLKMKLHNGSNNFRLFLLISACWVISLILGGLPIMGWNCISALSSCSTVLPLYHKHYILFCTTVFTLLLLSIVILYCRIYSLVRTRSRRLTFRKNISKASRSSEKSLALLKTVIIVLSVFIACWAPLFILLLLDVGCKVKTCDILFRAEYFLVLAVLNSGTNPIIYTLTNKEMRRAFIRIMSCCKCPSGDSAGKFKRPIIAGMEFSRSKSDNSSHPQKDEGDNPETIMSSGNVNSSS
In words: GTP-γ-S assay using human Edg-1 receptors (SPA, CHO Flp-In cell membrane preparation). It is filed as biochemical. The note with it: test compound at 10 μM; high control 10 μM S1P regarded as 100% activation; background-corrected; triplicate; read-out: % Activation (Edg-1 receptor activation in percent of the activation by 10 μM S1P). The method in brief: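 Membranes from CHO Flp-In cells stably overexpressing N-terminally FLAG-tagged human Edg-1 were used in a scintillation-proximity GTP-γ-S binding assay to measure receptor activation by compounds.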
Regarding `Fc1ccccc1Oc1nc(OCC2CC2)c2nc(-c3ccc(Cl)c(Cl)c3)oc2n1` [Example 158, 7-cyclopropylmethoxy-2-(3,4-dichloro-phenyl)-5-(2-fluoro-phenoxy)-oxazolo[5,4-d]pyrimidine], the activation at 10 µM stood at 69%.

With `Cc1ccc(F)cc1Oc1nc(OCC2CC2)c2nc(-c3ccc(Cl)c(Cl)c3)oc2n1` [Example 159, 7-cyclopropylmethoxy-2-(3,4-dichloro-phenyl)-5-(5-fluoro-2-methyl-phenoxy)-oxazolo[5,4-d]pyrimidine], the activation at 10 µM is 55%. The value for `CCCOc1nc(Oc2cncc(F)c2)nc2oc(-c3ccc(Cl)c(Cl)c3)nc12` [Example 160, 2-(3,4-dichloro-phenyl)-5-(5-fluoro-pyridin-3-yloxy)-7-propoxy-oxazolo[5,4-d]pyrimidine] was 75%.
